Legend:
[1] = tested on: HGGX6 (H3.3 G34R paediatric high-grade glioma line); assay: EC50 (inflection of fitted growth-inhibition curve) (log10 M)
Procedure, shortened: (§1)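 Viability readout was CellTiter-Glo luminescence, log2-transformed, normalised per plate to % activity between negative (solvent) and positive control wells, then pooled. This followed a 7-day exposure (3 days for iAstro) at 37 °C, 5% CO2 to a 10-point threefold dilution series (mean top concentration 35 μM), pin-tool delivered in triplicate to patient-derived pHGG/DIPG cell lines and astrocyte controls on 1% Geltrex-coated 384-well plates. Three- and four-parameter log-logistic fits were compared, and the one with the lowest AICc supplied EC50 and maximal response (yFin).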

[2] = tested on: HGGX39 (paediatric high-grade glioma line); assay: as above
Procedure, shortened: as §1

[3] = tested on: DIPGX29 (H3.3 K27M diffuse intrinsic pontine glioma line); assay: as above
Procedure, shortened: as §1

[4] = tested on: DIPGX37 (H3.3 K27M diffuse intrinsic pontine glioma line); assay: as above
Procedure, shortened: as §1

[5] = tested on: HGGX6; assay: area under dose-response curve of % growth inhibition (log2 RLU vs DMSO / staurosporine), 1e-11 to 1e-4 M (% x log10 M); higher = more growth inhibition
Procedure, shortened: (§2)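 Patient-derived pHGG/DIPG cell lines and astrocytes, cultured on 384-well plates with a 1% Geltrex coating, were given a 10-point threefold dilution series (mean top concentration 35 μM) in triplicate for 7 days (iAstro 3 days) at 37 °C, 5% CO2. CellTiter-Glo signal, log2-transformed and normalised per plate to % activity against solvent and positive controls, was fitted with a log-logistic curve or, where the sigmoid fit failed, a smoothing spline. Area under the curve was then computed by the trapezoid rule.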

[6] = tested on: HGGX39; assay: as above
Procedure, shortened: as §2

[7] = tested on: DIPGX29; assay: as above
Procedure, shortened: as §2

[8] = tested on: DIPGX37; assay: as above
Procedure, shortened: as §2

[9] = tested on: HGGX6; assay: maximal growth inhibition (yFin) relative to DMSO / staurosporine; higher = more efficacious
Procedure, shortened: as §1

[10] = tested on: HGGX39; assay: as above
Procedure, shortened: as §1

[11] = tested on: DIPGX29; assay: as above
Procedure, shortened: as §1

[12] = tested on: DIPGX37; assay: as above
Procedure, shortened: as §1

Structure (SMILES) | EC50 (log10 M) [1] | EC50 (log10 M) [2] | EC50 (log10 M) [3] | EC50 (log10 M) [4] | area under dose-response curve [5] | area under dose-response curve [6] | area under dose-response curve [7] | area under dose-response curve [8] | maximal growth inhibition [9] [%] | maximal growth inhibition [10] [%] | maximal growth inhibition [11] [%] | maximal growth inhibition [12] [%]
Cc1nnc(C[C@@H]2C=C(c3ccc(Cl)cc3)c3ccccc3-n3c(C)nnc32)o1 [BET-BAY 002] | -5.39 | -5.19 | -5.5 | -6.21 | 35.1 | 42.3 | 29.9 | 58.2 | 27 | 39.7 | 21.8 | 26.3
CS(=O)(=O)CCNCc1ccc(-c2ccc3ncnc(Nc4ccc(OCc5cccc(F)c5)c(Cl)c4)c3c2)o1 [LAPATINIB] | -4.69 | -4.71 | -4.72 | -4.7 | 57.8 | 55 | 70.3 | 72.5 | 76.8 | 76.9 | 76.7 | 78.4
CN(C)CCCOc1nn(Cc2ccccc2)c2ccccc12 [BENZYDAMINE] | -5.19 | -5.5 | -5.29 | -5.21 | 63.8 | 123 | 61.8 | 105 | 53.3 | 81.4 | 47.7 | 85.5
CCN(CC)CCOCCOC(=O)C(CC)(CC)c1ccccc1 [OXELADIN] | -4.83 | -4.84 | -4.79 | -4.88 | 28.1 | 59.1 | 19.7 | 35.4 | 28.2 | 64.4 | 25.1 | 34.4
CN(C)c1ccc2nc3ccc(=[N+](C)C)cc-3sc2c1 [METHYLENE BLUE] | -5.03 | -5.48 | -5.31 | -5.04 | 89.6 | 76.9 | 76.5 | 67.9 | 69.6 | 50.7 | 56.7 | 54.8
Cc1ccc(NC(=O)c2ccc(CN3CCN(C)CC3)cc2)cc1Nc1nc(-c2cccnc2)cs1 [MASITINIB] | -4.66 | -4.71 | -4.69 | -4.65 | 64.6 | 66.4 | 57.8 | 52.8 | 78.3 | 81.1 | 72.3 | 81
Cc1cn(CCN2CCN(c3ccccc3-c3cc(C#N)cc(C(=O)NCCCN4CCCC4)c3)CC2)c2ccccc12 [LLY-507] | -5.12 | -4.84 | -5.13 | -5.22 | 92.5 | 66.6 | 86.5 | 92.2 | 79.4 | 79.1 | 76.7 | 75.6
CC(C)(C)c1cc(C(C)(C)C)c(NC(=O)c2c[nH]c3ccccc3c2=O)cc1O [IVACAFTOR] | -5.01 | -5.04 | -4.99 | -4.98 | 91.8 | 101 | 90.3 | 99.3 | 91 | 97.1 | 90.9 | 97
CC1=C(C(=O)OC(C)C)C(c2cccc([N+](=O)[O-])c2)C(C(=O)OC2CN(C(c3ccccc3)c3ccccc3)C2)=C(N)N1 (configuration not stated) [AZELNIDIPINE] | -4.89 | -4.94 | -4.91 | -4.91 | 80.8 | 93.9 | 74.8 | 83.2 | 91.3 | 99.9 | 81.9 | 86.1
CN[C@H]1CC[C@@H](c2ccc(Cl)c(Cl)c2)c2ccccc21 [SERTRALINE] | -4.79 | -4.83 | -4.86 | -4.82 | 63.3 | 83.8 | 73.3 | 70 | 81 | 91.4 | 85.3 | 86.5
COc1cc(Nc2c(C#N)cnc3cc(OCCCN4CCN(C)CC4)c(OC)cc23)c(Cl)cc1Cl [BOSUTINIB] | -4.75 | -4.74 | -4.78 | -4.76 | 74.3 | 71.8 | 75.5 | 80.4 | 75.7 | 79.3 | 74.1 | 71.8
Clc1ccc(CCC(Cn2ccnc2)Sc2c(Cl)cccc2Cl)cc1 (configuration not stated) [BUTOCONAZOLE] | -4.79 | -4.87 | -4.86 | -4.84 | 37.8 | 80.5 | 59.7 | 69.4 | 47.6 | 85.9 | 57 | 70.3
COc1ccccc1-c1cc(Nc2cccc(CS(N)(=O)=O)c2)ncn1 | -4.83 | -4.84 | -4.82 | -4.68 | 54.4 | 40.5 | 58.4 | 39.8 | 65.7 | 48.3 | 71.9 | 59.7
COc1cc2c(cc1O)CC[C@@H]1[C@@H]2CC[C@]2(C)[C@@H](O)CC[C@@H]12 [2-METHOXYESTRADIOL] | -5.65 | -4.89 | -5.23 | -4.96 | 38.9 | 47.3 | 40.9 | 48.8 | 23.6 | 53 | 22.8 | 36.4
CN(C(=O)CN(CCO)CC(=O)N(C)C(C)(C)Cc1ccccc1)C(C)(C)Cc1ccccc1 [OXETHAZAINE] | -4.82 | -4.81 | -4.81 | -4.8 | 38.4 | 71.1 | 63 | 65.5 | 47.3 | 88.2 | 77.7 | 82.1
O=C1[C@H](Cc2ccc(O)cc2)N2C(=O)CCN(C(=O)NCc3ccccc3)[C@H]2CN1Cc1cccc2ccccc12 [ICG001] | -5.14 | -5.67 | -5.37 | -5.54 | 41.9 | 52.2 | 29.3 | 51.9 | 31.8 | 32.6 | 21.3 | 33.4

Reference: the supplement of paper PMC8253809
